Source: ChEMBL document CHEMBL1132638, “New (sulfonyloxy)piperazinyldibenzazepines as potential atypical antipsychotics: chemistry and pharmacological evaluation” (J Med Chem, 1999)

Experiments:
[1] = Partition coefficient (logP); assay type: physicochemical; details: octanol/water
D(4) dopamine receptor [2] = target: T1, D(4) dopamine receptor (Homo sapiens, UniProt P21917); experiment: Compound was tested in vitro for its binding affinity towards human Dopamine receptor D4.2
T1 sequence (P21917 whole entry): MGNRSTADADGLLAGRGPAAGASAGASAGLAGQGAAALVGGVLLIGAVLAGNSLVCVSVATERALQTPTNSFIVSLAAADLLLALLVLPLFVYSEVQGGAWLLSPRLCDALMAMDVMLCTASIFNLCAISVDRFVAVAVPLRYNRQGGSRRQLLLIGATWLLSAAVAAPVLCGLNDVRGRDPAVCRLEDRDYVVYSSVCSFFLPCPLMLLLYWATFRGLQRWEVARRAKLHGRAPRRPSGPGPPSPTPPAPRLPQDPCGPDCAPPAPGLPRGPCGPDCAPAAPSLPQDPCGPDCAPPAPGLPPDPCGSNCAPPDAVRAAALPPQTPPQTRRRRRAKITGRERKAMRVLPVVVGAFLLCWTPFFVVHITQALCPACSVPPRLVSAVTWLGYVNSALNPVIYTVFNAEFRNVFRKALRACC

D(2) dopamine receptor = D(2) dopamine receptor (Homo sapiens, UniProt P14416); experiment: Compound was tested in vitro for its binding affinity towards human Dopamine receptor D2
Sequence of D(2) dopamine receptor (P14416 whole entry): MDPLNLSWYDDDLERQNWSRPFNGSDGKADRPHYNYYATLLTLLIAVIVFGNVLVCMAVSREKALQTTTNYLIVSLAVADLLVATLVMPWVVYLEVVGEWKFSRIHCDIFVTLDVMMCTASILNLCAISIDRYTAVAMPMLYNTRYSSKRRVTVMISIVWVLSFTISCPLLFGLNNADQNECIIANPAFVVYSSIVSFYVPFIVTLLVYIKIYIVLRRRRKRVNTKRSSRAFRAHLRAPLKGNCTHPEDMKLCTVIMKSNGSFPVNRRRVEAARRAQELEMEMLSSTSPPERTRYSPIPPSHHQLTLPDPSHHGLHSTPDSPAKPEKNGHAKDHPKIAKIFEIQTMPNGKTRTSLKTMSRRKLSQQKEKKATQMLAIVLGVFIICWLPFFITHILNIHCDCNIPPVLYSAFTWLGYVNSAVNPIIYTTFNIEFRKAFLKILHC

D(3) dopamine receptor = D(3) dopamine receptor (Homo sapiens, UniProt P35462)
Sequence of D(3) dopamine receptor (P35462 whole entry): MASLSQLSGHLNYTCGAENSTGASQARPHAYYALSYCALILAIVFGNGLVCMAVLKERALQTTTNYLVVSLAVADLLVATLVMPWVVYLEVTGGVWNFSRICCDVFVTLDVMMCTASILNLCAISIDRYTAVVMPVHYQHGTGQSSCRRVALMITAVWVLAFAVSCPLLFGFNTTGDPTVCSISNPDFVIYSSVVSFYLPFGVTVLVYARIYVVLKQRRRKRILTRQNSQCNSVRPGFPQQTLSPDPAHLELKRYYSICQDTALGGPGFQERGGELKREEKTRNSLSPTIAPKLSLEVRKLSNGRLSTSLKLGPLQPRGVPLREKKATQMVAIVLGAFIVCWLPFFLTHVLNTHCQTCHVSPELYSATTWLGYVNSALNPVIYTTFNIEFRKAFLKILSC
Description: Binding affinity towards human Dopamine receptor D3

[3] = target: 5-hydroxytryptamine receptor 2A (Rattus norvegicus, UniProt P14842); experiment: biochemical
Sequence of 5-hydroxytryptamine receptor 2A (P14842 whole entry): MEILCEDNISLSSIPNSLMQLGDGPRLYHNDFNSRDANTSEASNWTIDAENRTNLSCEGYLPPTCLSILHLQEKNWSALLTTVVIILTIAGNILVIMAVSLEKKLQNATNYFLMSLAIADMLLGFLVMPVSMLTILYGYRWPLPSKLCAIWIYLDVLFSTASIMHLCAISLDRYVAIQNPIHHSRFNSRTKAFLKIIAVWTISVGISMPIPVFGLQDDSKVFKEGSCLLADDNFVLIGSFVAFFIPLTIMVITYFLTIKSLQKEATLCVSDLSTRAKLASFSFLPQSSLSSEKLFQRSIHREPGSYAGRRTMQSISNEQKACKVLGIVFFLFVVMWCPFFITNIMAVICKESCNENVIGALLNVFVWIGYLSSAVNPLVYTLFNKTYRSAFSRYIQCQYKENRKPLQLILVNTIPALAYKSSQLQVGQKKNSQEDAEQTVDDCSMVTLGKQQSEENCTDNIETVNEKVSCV
Description: Binding affinity towards 5-hydroxytryptamine 2A receptor from rat frontal cortex using [3H]ketanserin as radioligand

[4] = target: T2, Adrenergic receptor alpha-1 (Rattus norvegicus, UniProt P15823+P23944+P43140); experiment: Binding affinity towards alpha-1 adrenergic receptor from rat brain membranes using [3H]prazosin as radioligand
T2 sequence (P15823 whole entry): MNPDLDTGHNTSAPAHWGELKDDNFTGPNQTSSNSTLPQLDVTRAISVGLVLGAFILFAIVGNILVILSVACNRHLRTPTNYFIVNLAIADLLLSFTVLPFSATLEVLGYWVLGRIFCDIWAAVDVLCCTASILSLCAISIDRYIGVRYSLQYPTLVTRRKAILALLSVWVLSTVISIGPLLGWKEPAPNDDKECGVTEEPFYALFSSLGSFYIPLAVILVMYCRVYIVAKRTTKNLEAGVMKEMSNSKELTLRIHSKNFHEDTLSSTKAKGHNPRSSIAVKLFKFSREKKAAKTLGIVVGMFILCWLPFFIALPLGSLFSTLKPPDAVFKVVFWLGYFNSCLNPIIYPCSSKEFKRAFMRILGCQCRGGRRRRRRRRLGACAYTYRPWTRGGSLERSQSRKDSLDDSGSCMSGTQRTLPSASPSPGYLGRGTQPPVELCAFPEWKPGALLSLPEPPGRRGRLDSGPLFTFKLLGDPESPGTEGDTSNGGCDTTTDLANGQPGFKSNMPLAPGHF
T2 sequence (P23944 whole entry): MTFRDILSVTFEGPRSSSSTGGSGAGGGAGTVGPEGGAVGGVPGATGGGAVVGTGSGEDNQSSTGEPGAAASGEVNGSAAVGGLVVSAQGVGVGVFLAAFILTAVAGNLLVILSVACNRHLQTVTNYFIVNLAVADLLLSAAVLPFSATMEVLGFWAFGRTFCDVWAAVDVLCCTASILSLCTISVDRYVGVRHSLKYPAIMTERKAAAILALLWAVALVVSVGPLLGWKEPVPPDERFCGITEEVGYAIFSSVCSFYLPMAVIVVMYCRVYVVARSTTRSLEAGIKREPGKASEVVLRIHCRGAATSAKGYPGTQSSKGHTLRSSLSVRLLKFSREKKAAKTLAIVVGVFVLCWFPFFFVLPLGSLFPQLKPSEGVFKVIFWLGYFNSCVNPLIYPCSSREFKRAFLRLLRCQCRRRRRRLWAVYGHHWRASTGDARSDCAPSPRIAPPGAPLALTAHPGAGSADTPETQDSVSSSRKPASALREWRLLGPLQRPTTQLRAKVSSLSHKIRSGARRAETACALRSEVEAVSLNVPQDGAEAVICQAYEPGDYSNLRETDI
T2 sequence (P43140 whole entry): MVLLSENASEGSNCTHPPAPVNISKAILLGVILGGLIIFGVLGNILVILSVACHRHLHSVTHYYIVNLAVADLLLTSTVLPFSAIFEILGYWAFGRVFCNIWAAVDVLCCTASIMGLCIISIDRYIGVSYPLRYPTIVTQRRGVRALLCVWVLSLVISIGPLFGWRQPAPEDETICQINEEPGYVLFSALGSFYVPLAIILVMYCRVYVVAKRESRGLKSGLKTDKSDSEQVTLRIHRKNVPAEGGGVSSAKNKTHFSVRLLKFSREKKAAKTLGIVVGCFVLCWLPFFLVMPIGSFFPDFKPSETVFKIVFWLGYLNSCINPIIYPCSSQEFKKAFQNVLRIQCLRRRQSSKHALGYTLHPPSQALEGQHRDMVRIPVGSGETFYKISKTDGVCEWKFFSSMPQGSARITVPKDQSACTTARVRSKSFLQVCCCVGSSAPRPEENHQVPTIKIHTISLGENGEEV

[5] = target: T3, 5-hydroxytryptamine receptor 2C (Rattus norvegicus, UniProt P08909)
T3 sequence (P08909 whole entry): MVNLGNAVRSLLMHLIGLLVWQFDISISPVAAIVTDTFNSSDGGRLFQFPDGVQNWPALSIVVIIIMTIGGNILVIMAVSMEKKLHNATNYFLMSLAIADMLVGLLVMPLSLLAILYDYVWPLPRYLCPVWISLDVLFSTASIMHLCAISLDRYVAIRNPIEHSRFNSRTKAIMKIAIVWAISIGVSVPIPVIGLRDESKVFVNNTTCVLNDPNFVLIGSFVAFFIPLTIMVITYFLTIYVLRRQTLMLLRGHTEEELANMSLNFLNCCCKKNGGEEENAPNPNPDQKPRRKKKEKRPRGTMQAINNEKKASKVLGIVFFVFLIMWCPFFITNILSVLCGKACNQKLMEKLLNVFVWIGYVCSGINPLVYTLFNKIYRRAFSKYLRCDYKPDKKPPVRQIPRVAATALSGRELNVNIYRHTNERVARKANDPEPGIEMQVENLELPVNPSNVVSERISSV
Description: Binding affinity towards 5-HT2C receptor from rat using [3H]mesulergine as radioligand

D(1A) dopamine receptor = D(1A) dopamine receptor (Rattus norvegicus, UniProt P18901); experiment: biochemical
Sequence of D(1A) dopamine receptor (P18901 whole entry): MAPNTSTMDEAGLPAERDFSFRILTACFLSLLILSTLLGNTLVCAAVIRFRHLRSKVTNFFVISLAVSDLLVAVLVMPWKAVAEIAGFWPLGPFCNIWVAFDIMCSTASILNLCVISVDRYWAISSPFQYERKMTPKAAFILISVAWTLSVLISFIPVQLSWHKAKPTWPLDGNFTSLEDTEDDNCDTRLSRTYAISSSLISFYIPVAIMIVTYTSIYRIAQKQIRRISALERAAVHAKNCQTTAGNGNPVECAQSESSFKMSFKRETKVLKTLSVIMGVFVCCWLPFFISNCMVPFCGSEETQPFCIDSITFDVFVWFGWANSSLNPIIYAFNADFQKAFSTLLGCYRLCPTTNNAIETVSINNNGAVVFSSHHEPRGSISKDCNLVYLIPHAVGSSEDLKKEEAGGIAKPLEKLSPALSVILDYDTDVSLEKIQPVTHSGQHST
Description: Binding affinity towards D1 CNS receptor of rat corpus striatum using [3H]SCH-23390 as radioligand

D(4) dopamine receptor [6] = target: T1, D(4) dopamine receptor; experiment: Binding affinity towards human D4.2 receptor
Histamine H1 receptor = Histamine H1 receptor (Rattus norvegicus, UniProt P31390); experiment: Binding affinity towards histamine H1 receptor from rat brain membranes using [3H]mepyramine as radioligand
Sequence of Histamine H1 receptor (P31390 whole entry): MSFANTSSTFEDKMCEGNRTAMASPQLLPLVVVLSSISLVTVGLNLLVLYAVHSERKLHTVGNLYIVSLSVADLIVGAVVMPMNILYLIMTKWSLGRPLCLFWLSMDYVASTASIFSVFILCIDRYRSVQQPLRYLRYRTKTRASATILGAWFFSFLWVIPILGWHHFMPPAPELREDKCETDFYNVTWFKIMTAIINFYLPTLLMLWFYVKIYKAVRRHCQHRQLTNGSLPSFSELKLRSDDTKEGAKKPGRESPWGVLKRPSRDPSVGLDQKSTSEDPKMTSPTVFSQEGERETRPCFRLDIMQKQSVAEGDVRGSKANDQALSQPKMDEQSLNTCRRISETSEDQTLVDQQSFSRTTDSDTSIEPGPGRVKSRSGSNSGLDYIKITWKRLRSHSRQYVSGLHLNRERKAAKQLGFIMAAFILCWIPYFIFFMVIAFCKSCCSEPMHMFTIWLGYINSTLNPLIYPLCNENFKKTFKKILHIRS

Mus musculus [7] = experiment: Inhibition of apomorphine induced climbing affects in mice by administering the compound perorally in mice; assay type: functional; details: Mus musculus, po; read-out: ED50
Mus musculus [8] = experiment: Inhibition of apomorphine induced climbing affects in mice by administering the compound subcutaneously in mice; assay type: functional; details: sc
[9] = target: T4, Muscarinic acetylcholine receptor M1 (Homo sapiens, UniProt P11229); experiment: Inhibition of binding of 1.0 nM [3H]pirenzepine to cloned human Muscarinic acetylcholine receptor M1 expressed in membranes from CHO-K1 cells; assay type: cell-based
T4 sequence (P11229 whole entry): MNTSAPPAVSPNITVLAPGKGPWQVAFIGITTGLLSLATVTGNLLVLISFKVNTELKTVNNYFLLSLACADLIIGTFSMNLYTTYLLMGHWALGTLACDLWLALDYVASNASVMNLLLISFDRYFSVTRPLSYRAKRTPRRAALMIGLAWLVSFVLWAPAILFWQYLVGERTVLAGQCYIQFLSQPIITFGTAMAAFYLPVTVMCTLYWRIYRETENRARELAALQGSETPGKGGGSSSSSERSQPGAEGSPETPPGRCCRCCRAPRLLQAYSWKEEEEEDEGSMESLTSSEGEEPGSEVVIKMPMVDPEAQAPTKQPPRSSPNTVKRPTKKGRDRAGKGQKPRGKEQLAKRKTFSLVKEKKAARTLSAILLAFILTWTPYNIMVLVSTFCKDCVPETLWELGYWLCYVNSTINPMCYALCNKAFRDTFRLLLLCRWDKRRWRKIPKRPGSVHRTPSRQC

Rattus norvegicus [10] = experiment: Compound is measured for inhibition of catalepsy in rat by peroral administration of compound; assay type: functional; details: po
[11] = Therapeutic ratio by Peroral dose of administration (quotient ED50 catalepsy/ED50 climbing); assay type: ADME, organism-based; details: in vivo, po; read-out: Therapeutic ratio
[12] = Delta ED50 value by peroral administration (ED50 catalepsy-ED50 Climbing); assay type: functional
Rattus norvegicus [13] = species on record: Rattus norvegicus; experiment: Ex vivo accumulation of L-DOPA was measured in striatum of rats
Rattus norvegicus [14] = experiment: Catalepsy percent score in rat by peroral administration of 100 mg/Kg of compound
Rattus norvegicus [15] = experiment: Inhibition of catalepsy in rat by subcutaneous administration of compound; assay type: functional; details: sc
[16] = Delta ED50 value by Subcutaneous administration (ED50 catalepsy-ED50 Climbing); assay type: functional
in vivo = details: sc
Description: Therapeutic ratio by Subcutaneous dose of administration (quotient ED50 catalepsy/ED50 climbing)

| logP [1] | IC50 (D(3) dopamine receptor) | IC50 [3] | IC50 [4] | IC50 [5] | IC50 (D(1A) dopamine receptor) | IC50 [9] | SMILES | further results |
| --- | --- | --- | --- | --- | --- | --- | --- | --- |
| 3.58 | – | – | – | – | – | – | CN1CCN(C2=Nc3cc(OS(=O)(=O)C(F)(F)F)ccc3Nc3ccccc32)CC1 | – |
| 3.76 | 29 nM | 48 nM | 27 nM | 100 nM | 66 nM | 490 nM | CN1CCN(C2=Nc3ccccc3Oc3ccc(OS(=O)(=O)C(F)(F)F)cc32)CC1 | IC50 (D(4) dopamine receptor [6]): 150 nM; IC50 (Histamine H1 receptor): 120 nM; ED50 (Mus musculus [7]): 1.3 mg/kg; ED50 (Mus musculus [8]): 2.2 mg/kg; ED50 (Rattus norvegicus [10]): 28 mg/kg; selectivity ratio [11]: 21.5; Delta ED50 [12]: 26.7 mg/kg; ED50 (Rattus norvegicus [13]): 0.7 mg/kg; Catalepsy (Rattus norvegicus [14]): 32% |
| 4.3 | 52 nM | 23 nM | 7.1 nM | 13 nM | 200 nM | 54 nM | CN1CCN(C2=Nc3cc(Cl)ccc3Nc3ccc(OS(=O)(=O)C(F)(F)F)cc32)CC1 | IC50 (D(4) dopamine receptor [6]): 490 nM; ED50 (Mus musculus [8]): 8.2 mg/kg; ED50 (Rattus norvegicus [15]): > 50 mg/kg; Delta ED50 [16]: >41.8 mg/kg; selectivity ratio (in vivo): > 6.1 |
| 1.8 | – | 4900 nM | 8700 nM | 7400 nM | 22000 nM | 38 nM | CN1CCN(C2=Nc3cc(OS(C)(=O)=O)ccc3Nc3ccccc32)CC1 | – |

More lines, now with the values behind:

| SMILES | logP [1] | IC50 (D(3) dopamine receptor) | IC50 [3] | IC50 [4] | IC50 [5] | IC50 (D(1A) dopamine receptor) | IC50 [9] | further results |
| --- | --- | --- | --- | --- | --- | --- | --- | --- |
| CN1CCN(C2=Nc3ccccc3Oc3ccc(OS(C)(=O)=O)cc32)CC1 | 1.98 | 350 nM | 230 nM | – | – | – | – | IC50 (D(4) dopamine receptor [2]): > 1000 nM; IC50 (D(2) dopamine receptor): > 1000 nM |
| CN1CCN(C2=Nc3ccccc3Nc3ccc(OS(C)(=O)=O)cc32)CC1 | 1.8 | – | – | 160 nM | 1200 nM | 2100 nM | – | – |
| CN1CCN(C2=Nc3ccccc3Nc3ccc(O)cc32)CC1 | 2.21 | – | – | – | – | – | – | – |
| CN1CCN(C2=Nc3cc(O)ccc3Nc3ccccc32)CC1 | 2.21 | – | – | – | – | – | – | – |
